We go through eight molecules from BindingDB's records for doi:10.1016/j.bmcl.2006.04.011 (Ambrilia Biopharma, 2006).

Where only a bound is given, the exact number is not on record here.

Broadly, the IC50 is the midpoint of a concentration-inhibition curve. Read a low IC50 as greater potency. As usually defined, the Ki is a measure of affinity in units of concentration, obtained from inhibition or displacement. A higher Ki goes with a looser hold on the target.

For the first test, the target named is T1, Dimer of Gag-Pol polyprotein [501-599] (Human immunodeficiency virus 1, UniProt P03367).
T1 construct: 501-599
The experiment in a line: Protease Inhibition Assay.
Settings: not given
The method, then:
HIV-1 protease activity was measured by a continuous fluorometric assay. The proteolytic activity can be monitored by the increase in fluorescence intensity, and the protease products were analyzed by HPLC. IC50 values were determined from a dose-response curve, whereas Ki values were obtained by fitting initial rates to a tight-binding inhibition equation.
On to `CC(C)CN(C(CO)CCCCNC(=O)[C@@H](NC(=O)OCc1ccccn1)C(c1ccccc1)c1ccccc1)S(=O)(=O)c1ccc(N)cc1` (stereo partly drawn) [pyridin-2-ylmethyl N-[(1S)-1-{[(5R)-5-[(4-aminobenzene)(2-methylpropyl)sulfonamido]-6-hydroxyhexyl]carbamoyl}-2,2-diphenylethyl]carbamate], for which inhibition was half-maximal at 0.12 nM (IC50) and the affinity corresponds to a Ki of 0.4 nM.

`CC(C)CN(C(CO)CCCCNC(=O)[C@@H](NC(=O)OCc1cccnc1)C(c1ccccc1)c1ccccc1)S(=O)(=O)c1ccc(N)cc1` (stereo partly drawn) [pyridin-3-ylmethyl N-[(1S)-1-{[(5R)-5-[(4-aminobenzene)(2-methylpropyl)sulfonamido]-6-hydroxyhexyl]carbamoyl}-2,2-diphenylethyl]carbamate] registered a half-maximal inhibitory concentration (IC50) of 0.48 nM and an inhibition constant Ki of 0.36 nM.

`CC(C)CN(C(CO)CCCCNC(=O)[C@@H](NC(=O)OCc1ccncc1)C(c1ccccc1)c1ccccc1)S(=O)(=O)c1ccc(N)cc1` (stereo partly drawn) [pyridin-4-ylmethyl N-[(1S)-1-{[(5R)-5-[(4-aminobenzene)(2-methylpropyl)sulfonamido]-6-hydroxyhexyl]carbamoyl}-2,2-diphenylethyl]carbamate]: the midpoint of inhibition, the IC50, lay at 0.39 nM and the affinity corresponds to a Ki of 0.02 nM.

Turning to `CC(C)CN(C(CO)CCCCNC(=O)[C@@H](NC(=O)OC(C)(C)C)C(c1ccccc1)c1ccccc1)S(=O)(=O)c1ccc(N)cc1` (stereo partly drawn) [tert-butyl N-[(1S)-1-{[(5R)-5-[(4-aminobenzene)(2-methylpropyl)sulfonamido]-6-hydroxyhexyl]carbamoyl}-2,2-diphenylethyl]carbamate], 0.4 nM corresponded to half-maximal inhibition (IC50) and the inhibition constant Ki stood at 0.5 nM.

Still in this test, the particulars now being: pH 4.7; 30 °C.
Regarding `COC(=O)N[C@@H](Cc1ccc2ccccc2c1)C(=O)NCCCCC(CO)N(CC(C)C)S(=O)(=O)c1ccc(N)cc1` (stereo partly drawn) [methyl N-[(1S)-1-{[(5R)-5-[(4-aminobenzene)(2-methylpropyl)sulfonamido]-6-hydroxyhexyl]carbamoyl}-2-(naphthalen-2-yl)ethyl]carbamate], the IC50 was 1.2 nM.

Take `COC(=O)N[C@@H](Cc1ccccc1)C(=O)NCCCCC(CO)N(CC(C)C)S(=O)(=O)c1ccc(N)cc1` (stereo partly drawn) [methyl N-[(1S)-1-{[(5R)-5-[(4-aminobenzene)(2-methylpropyl)sulfonamido]-6-hydroxyhexyl]carbamoyl}-2-phenylethyl]carbamate]: the half-inhibitory concentration (IC50) stood at 12 nM. With `COC(=O)N[C@@H](CCc1ccccc1)C(=O)NCCCCC(CO)N(CC(C)C)S(=O)(=O)c1ccc(N)cc1` (stereo partly drawn) [methyl N-[(1S)-1-{[(5R)-5-[(4-aminobenzene)(2-methylpropyl)sulfonamido]-6-hydroxyhexyl]carbamoyl}-3-phenylpropyl]carbamate], the IC50 turned out to be 40 nM. Same read-out and setting: to `COC(=O)N[C@H](C(=O)NCCCCC(CO)N(CC(C)C)S(=O)(=O)c1ccc(N)cc1)c1ccccc1` (stereo partly drawn) [methyl N-[(S)-{[(5R)-5-[(4-aminobenzene)(2-methylpropyl)sulfonamido]-6-hydroxyhexyl]carbamoyl}(phenyl)methyl]carbamate] belongs above 300 nM.
